Laboratory results reported in patent US20210403864A1, “METHODS AND COMPOSITIONS FOR TREATING ACTIVATED G-ALPHA Q MUTANT CANCERS OR MELANOCYTIC MALIGNANCIES” (Memorial Sloan Kettering Cancer Center, priority 2018, published 2021).

Tests used:
[1] = target: T1, GNAQ^R183Q (Homo sapiens, UniProt P50148, R183Q); assay: IP1 accumulation assay in transiently transfected HEK293T cells; type: cell-based; conditions: 24-hour treatment
T1 construct: host or cells: melan-a (immortalized mouse melanocytes), retroviral transduction with MSCV-Puro
T1 sequence (P50148 1-359 R183Q): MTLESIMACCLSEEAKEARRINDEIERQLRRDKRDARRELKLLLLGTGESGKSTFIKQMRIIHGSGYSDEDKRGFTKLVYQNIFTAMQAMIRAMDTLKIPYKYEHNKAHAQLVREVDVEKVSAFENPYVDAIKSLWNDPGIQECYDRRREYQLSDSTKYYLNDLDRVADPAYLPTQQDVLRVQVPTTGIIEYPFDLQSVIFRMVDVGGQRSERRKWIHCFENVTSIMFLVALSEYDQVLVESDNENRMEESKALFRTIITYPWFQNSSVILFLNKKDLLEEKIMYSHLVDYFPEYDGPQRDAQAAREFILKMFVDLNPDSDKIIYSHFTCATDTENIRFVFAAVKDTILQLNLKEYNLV
Method: Cells were treated with YM at increasing doses for 24 hours. Error bars, s.e.m. from three biological replicates, each with three technical replicates.
Exogenous Gene Expression. HEK293T cells were transiently transfected to express vectors containing synthetic CYSLTR2 (Moore A R, et al., Nat Genet. 48(6):675 (2016)) and GNAQ. Genewiz was used to codon optimize these sequences for expression in mammalian cells. The human GNAQ α-subunit plasmids encoding for GNAQ mutants Q209L, R183Q and G48V were generated by Quick Change (Agilent Technologies, Santa Clara, Calif.) site-directed mutagenesis. HEK293T cells were transiently transfected with the plasmids encoding for GNAQ WT and mutants subcloned into pcDNA3.1(+) using Lipofectamine according to the manufacturer's instructions. Briefly, 9,000 HEK293T cells were transfected in low-volume 384-well plates with 11 ng of total DNA/well for 24 hours. Human cDNAs for WT CYSLTR2 and GNAQ were obtained from Origene and cloned into MSCV-Puro (Addgene plasmid #68469) for stable expression in melan-a cells via retroviral transduction with X-tremeGENE 9 (Sigma-Aldrich, St. Louis Mo.). Quikchange primers were used to introduce the various mutant constructs. All constructs were confirmed by sequencing. The primers used in the experiments described herein are provided below: […]
IP1 Accumulation Assay. IP1 concentrations in GNAQ-transfected HEK293T cells, GNAQ-expressing melan-a cells and uveal melanoma cells was measured using a competitive homogenous time resolved fluorescence (HTRF) assay (CisBio, Bedford, Mass.). Briefly, 9,000 transiently transfected-HEK293T cells, 5,000 melan-a cells and 5,000 uveal melanoma cells were seeded in low-volume 384-well plates in 7 μL media for 24 hours prior YM-254890 treatment. Cells were then treated with various concentrations of YM-254890 diluted in the appropriate media at 37° C. for 3 hours or 24 hours. […] Following incubation, cells were lysed by adding 3 μL/well of d2-labeled IP1 analogue as the fluorescence acceptor and the Terbium cryptate-labeled anti-IP1 mAb as the fluorescence donor, diluted in the kit-supplied lysis buffer. The plates were incubated overnight at RT and time-resolved fluorescence signals were read using the BioTek Synergy NEO plate reader (BioTek Instruments, Winooski, Vt.) at 620 nm and […]. Results were calculated as a 665 nm/620 nm signal ratio, and IP1 concentrations were interpolated from a standard curve prepared using the supplied IP1 calibrator. […] Dose-response curves and bar graphs were analyzed using GraphPad Prism 7.0 software. […]

[2] = test system: BRAF^V600E-expressing melan-a cells; assay: TPA-independent cell growth, CellTiter-glo 2.0; type: cell-based, mouse; conditions: 5 days, without TPA
Method: (§1) Data are expressed as the percentage relative light units (RLU) relative to that observed with vehicle. Error bars, s.e.m. from triplicate samples.
(§2) Cell Culture and in vitro analysis. Mutation dependent melan-a cells were generated by transducing cells with cDNAs in MSCV-PURO (retrovirus) and then selecting cells with puromycin (1 μg/ml) for two days. TPA (Sigma-Aldrich, St. Louis, Mo.) was then withdrawn from cultures. Cells with activating mutations (CYSLTR2^L129Q, GNAQ^G48V/R183Q/Q209L, KRAS^G12V, and BRAF^V600E) continued to proliferate over several passages (>2 weeks) and were then validated with qRT-PCR and immunoblots. Vector and WT controls were unable to maintain proliferation after a couple passages upon TPA withdrawal. All cells were cultured in media containing 10% FBS, L-glutamine ([…]), penicillin (100 U/ml), streptomycin (100 μg/ml). Melan-a cells provided by D. Bennett, St. George's Hospital, University of London (Johnson C P, et al., PLoS One. 12(6):1-17 (2017)), were cultured in RPMI supplemented with 200 nM TPA unless otherwise noted. HEK293T (from ATCC, Manassas, Va.) cells were cultured in DMEM-Q and UVM cells were cultured in RPMI. All cells tested negative for mycoplasma. Cell growth assays and YM dose response curves were assayed using CellTiter-glo 2.0 (Promega, Madison, Wis.) at given time points or after five days of incubation with YM and readout on a Glomax Luminometer (Promega, Madison, Wis.). IC50 values were calculated using Prism 7.0 software. Growth assays were compared to day 1 readings and dose response curves were compared to vehicle. Data shown is representative of at least three independent experiments with at least three technical replicates. Dose-response curves and growth assays were analyzed using GraphPad Prism 7.0 software.

[3] = test system: KRAS^G12V-expressing melan-a cells; assay: TPA-independent cell growth, CellTiter-glo 2.0; type: cell-based, mouse; conditions: 5 days, without TPA
Method: as §1, §2

[4] = test system: GNAQ^R183Q-expressing melan-a cells; assay: TPA-independent cell growth, CellTiter-glo 2.0; type: cell-based, mouse; conditions: 5 days, without TPA
Method: as §1, §2

[5] = test system: GNAQ^G48V-expressing melan-a cells; assay: TPA-independent cell growth, CellTiter-glo 2.0; type: cell-based, mouse; conditions: 5 days, without TPA
Method: as §1, §2

## YM-254890
[1]
  fold less sensitive to YM compared to CYSLTR2^L129Q and GNAQ^G48V (IP1 accumulation): ~20 fold
[2]
  sensitivity of TPA-independent cell growth to YM: completely resistant
[3]
  sensitivity of TPA-independent cell growth to YM: completely resistant
[4]
  sensitivity of TPA-independent cell growth to YM: modestly less sensitive
[5]
  sensitivity of TPA-independent cell growth to YM: sub-nanomolar sensitivity
